Measurements: PubChem BioAssay AID2060502 (Molecular Pharmacology Branch, DTP, NCI, 2025)
pIC50: −log10 of the molar value. Where “and” joins values, the source holds several entries; their conditions need not be identical. Identical values can stand only once. One block for each molecule: values may come before it.

System: 885724-159-R-J1-PDC complex spheroid viability
Experiment: Anticancer human tumor 885724-159-R-J1-PDC patient-derived pancreatic adenocarcinoma cell line growth inhibition [GQUAD]
Conditions: for viability, T/C: stronger effect = lower value
From the text: DNA G-quadruplex Stabilizer Agents in Combinations in Complex Spheroids
A high-throughput screen of multi-cell type tumor spheroids was designed to identify active combinations of DNA G-quadruplex stabilizer agents and targeted small molecules. Complex spheroids include a stromal component modeled by human endothelial cells (HUVEC) and fibroblasts modeled by human mesenchymal stem cells (MSCs). The concentration ranges selected for each drug and investigational agent were based upon clinically achievable concentrations if the clinical Cmax of the agent was known.
Compounds. The drugs and investigational agents: pidnarulex (CX-5461; NSC782164), APTO-253 (NSC789042), BRACO-19 (NSC847499), peposertib (NSC802822), ceralasertib (NSC780249), elimusertib (NSC800525), camonsertib (NSC841442), AZD-1390 (NSC803789), olaparib (NSC753686), talazoparib (NSC767125), ART-558 (NSC835418), sotorasib (NSC818433), MRTX-1133 (NSC836407), SN-38 (NSC673596), topotecan (NSC609699), etoposide (NSC141540), doxorubicin (NSC123127), gemcitabine (NSC613327), 5-fluorouracil (NSC19893), paclitaxel (NSC125973), vemurafenib (NSC761431), panobinostat (NSC761190), R-306465 (JNJ-16241199; NSC773264), adavosertib (NSC754352), TP-3654 (NSC805149), carboplatin (NSC241240), KSQ-4279 (NSC840948), and staurosporine (NSC755774) were obtained from the National Cancer Institute (NCI) Developmental Therapeutics Program Chemical Repository (34). The FDA-approved anticancer drug set is available from the NCI Developmental Therapeutics Program. […] The stock solutions were prepared in dimethyl sulfoxide (DMSO, Sigma-Aldrich, St. Louis, MO, cat. D2650) at 800-fold the tested concentration and stored at -70 degrees C prior to their use. All drugs and investigational agents were tested over a range starting from a high concentration at or near the clinical Cmax and decreasing in half-log increments. If the clinical Cmax for an agent had not been determined, the highest concentration tested was 10 microM.
2.3 Cell Culture. All cells were maintained in an incubator at 37 degrees C and 5% CO2 with 95% humidity. The PDC lines were cultured according to standard operating procedures established by the NCI PDMR. All PDCs were thawed and cultured in Matrigel-coated flasks prepared with a working solution of 1X Ham's F-12 nutrient mix, without supplementation (Invitrogen, cat. 11765054), 100 U/mL penicillin-streptomycin (Invitrogen, cat. 15140122), and 2.5% Matrigel (Corning Inc., cat. 354248) for the first three passages. The 857933-349-R-J2-PDC line was cultured in 6C/Colon 1B media, which includes advanced DMEM/F-12 (Thermo Fisher Scientific, cat. 12634028), 10 mM HEPES (Thermo Fisher Scientific, cat. 15630080), 1X GlutaMAX supplement (Thermo Fisher Scientific, cat. 35050061), 0.1 mg/mL primocin (InvivoGen, cat. ant-pm-2), 10% defined fetal bovine serum, heat inactivated (HyClone Laboratories Inc., cat. SH30070.03HI), 50% L-WRN conditioned media (ATCC, cat. CRL-3276), 1.25 mM N-Acetyl-L-cysteine (Sigma-Aldrich, cat. A9165), 10 mM nicotinamide (Sigma-Aldrich, cat. N0636), 1X B-27 supplement (Thermo Fisher Scientific, cat. 17504044), 1X N-2 supplement (Thermo Fisher Scientific, cat. 17502048), 10 microM Y-27632 dihydrochloride (Tocris Bioscience, cat. 1254), and 50 ng/mL human EGF recombinant protein (Thermo Fisher Scientific, cat. PHG0311). The 485176-168-R4-J1-PDC line was cultured in Panc media, which includes all 6C/Colon 1B media components plus 100 ng/mL human FGF-10 (Thermo Fisher Scientific, cat. 100-26), 500 nM SB-431542 (Selleckchem, cat. S1067), and gastrin (Tocris, cat. 3006).
[…]
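Note: spheroids exposed to agents for seven days before readout.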
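Throughout, for viability, T/C: percent of vehicle control viability where 100% = DMSO wells.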

pIC50 (curve of compound): < 5.00
SMILES: O=c1[nH]cc(F)c(=O)[nH]1
viability, T/C (compound 0.0316 µM): 96.3% and 85.1% and 106%
viability, T/C (compound 0.1 µM): 100% and 95.1% and 93.2%
viability, T/C (compound 0.316 µM): 96.9% and 89% and 95.5%
viability, T/C (compound 1 µM): 91.2% and 94% and 92.8%
viability, T/C (compound 3.16 µM): 94.3% and 94.6% and 93.9%
viability, T/C (compound 10 µM): 88.3% and 87.7% and 92%

SMILES: CC(C)n1c(=O)n(C)c2cnc3cc(F)c(-c4ccc(OCCCN5CCCCC5)nc4)cc3c21 + CN(C)c1ccc(Nc2c3ccc(NC(=O)CCN4CCCC4)cc3nc3cc(NC(=O)CCN4CCCC4)ccc23)cc1
pIC50 (curve of first compound, second compound 0.0316 µM): < 5.00
pIC50 (curve of first compound, second compound 0.1 µM): < 5.00
pIC50 (curve of first compound, second compound 0.316 µM): < 5.00
pIC50 (curve of first compound, second compound 1 µM): < 5.00
pIC50 (curve of first compound, second compound 3.16 µM): 5.10
pIC50 (curve of first compound, second compound 10 µM): 5.92
viability, T/C (second compound 0.0316 µM, first compound 0.0316 µM): 105%
viability, T/C (second compound 0.0316 µM, first compound 0.1 µM): 111%
viability, T/C (second compound 0.0316 µM, first compound 0.316 µM): 100%
viability, T/C (second compound 0.0316 µM, first compound 1 µM): 91.7%
viability, T/C (second compound 0.0316 µM, first compound 3.16 µM): 97%
viability, T/C (second compound 0.0316 µM, first compound 10 µM): 56%
viability, T/C (second compound 0.1 µM, first compound 0.0316 µM): 109%
viability, T/C (second compound 0.1 µM, first compound 0.1 µM): 107%
viability, T/C (second compound 0.1 µM, first compound 0.316 µM): 112%
viability, T/C (second compound 0.1 µM, first compound 1 µM): 101%
viability, T/C (second compound 0.1 µM, first compound 3.16 µM): 88.2%
viability, T/C (second compound 0.1 µM, first compound 10 µM): 68.2%
viability, T/C (second compound 0.316 µM, first compound 0.0316 µM): 107%
viability, T/C (second compound 0.316 µM, first compound 0.1 µM): 101%
viability, T/C (second compound 0.316 µM, first compound 0.316 µM): 92.2%
viability, T/C (second compound 0.316 µM, first compound 1 µM): 91.3%
viability, T/C (second compound 0.316 µM, first compound 3.16 µM): 85.2%
viability, T/C (second compound 0.316 µM, first compound 10 µM): 56.2%
viability, T/C (second compound 1 µM, first compound 0.0316 µM): 92.6%
viability, T/C (second compound 1 µM, first compound 0.1 µM): 83.4%
viability, T/C (second compound 1 µM, first compound 0.316 µM): 101%
viability, T/C (second compound 1 µM, first compound 1 µM): 82.7%
viability, T/C (second compound 1 µM, first compound 3.16 µM): 74.5%
viability, T/C (second compound 1 µM, first compound 10 µM): 54.3%
viability, T/C (second compound 3.16 µM, first compound 0.0316 µM): 83.7%
viability, T/C (second compound 3.16 µM, first compound 0.1 µM): 80.2%
viability, T/C (second compound 3.16 µM, first compound 0.316 µM): 86.4%
viability, T/C (second compound 3.16 µM, first compound 1 µM): 64.1%
viability, T/C (second compound 3.16 µM, first compound 3.16 µM): 66.6%
viability, T/C (second compound 3.16 µM, first compound 10 µM): 46%
viability, T/C (second compound 10 µM, first compound 0.0316 µM): 78.7%
viability, T/C (second compound 10 µM, first compound 0.1 µM): 84.5%
viability, T/C (second compound 10 µM, first compound 0.316 µM): 60.3%
viability, T/C (second compound 10 µM, first compound 1 µM): 55.1%
viability, T/C (second compound 10 µM, first compound 3.16 µM): 33.3%
viability, T/C (second compound 10 µM, first compound 10 µM): 7.2%
